Entries after “also recorded” stand apart in the source; their conditions may differ.
Columns and labels:
hPSC-derived NSCs = experiment: Ventral regional identity of hPSC-derived NSCs at 9 DDC in dSMADi+SAG conditions (NKX2.1, LMX1A, PHOX2B, NKX2.2); format: cell-based, human; conditions: for identity imposed by RA analogue with inhibition of CYP26 activity: 500 nM analogue for 48-hours plus 500 nM R115866, 9 DDC; for identity imposed by RA analogue: 500 nM for 48-hours; for identity imposed by RA analogue / identity of NSCs: dSMADi+SAG; for identity imposed by RA analogue / identity of cells after inhibiting CYP26 activity / identity of NSCs: 9 DDC
CYP26 = conditions: cited from earlier work
[1] = system: hPSC-derived vMB progenitors; experiment: Neurogenesis and mDA neuron yield in differentiating hPSC cultures (HuCD, TuJ1, TH, GABA immunocytochemistry, electrophysiology); format: cell-based, human; conditions: with SAG
Source text: A unique feature of mDA neurons is that they originate from initially non-neuronal floor plate (FP) cells at the ventral midline of the MB, and progenitors must acquire neuronal potential prior to differentiation into neurons^30,44. Few markers distinguish between these states, but downregulation of SHH and upregulation pro-neural bHLH proteins over time correlate with this transition^44. […] In RA^2D+SAG cultures at 21 DDC, ˜30% of DAPI^+ cells accounted for HuCD^+ neurons (FIG. 4d) and many of these had initiated expression of TH (FIG. 4c). When we instead used CHIR99021+SAG to specify LMX1A^+/NKX2.1^− vMB progenitors (FIG. 3b), cells initiated neurogenesis at around 17 DDC (FIG. 4c, d) which is consistent with previous studies^9,13. At 21 DDC, HuCD^+ neurons constituted ˜10% of total cells and few neurons expressed TH (FIG. 4c, d).
TH^+ neurons acquired a progressively more advanced neuronal morphology with a progressive outgrowth of TH^+ axonal processes in RA^2D+SAG cultures between 30-45 DDC (FIG. 4e, g, h; FIG. 8f (Supplementary FIG. 2f)). TH^+ neurons expressed mDA neuron markers LMX1A, LMX1B, FOXA2, NURR1, and OTX2 at 30-35 DDC (FIG. 4e). […] TH^+ neurons also expressed the mature neuronal marker SYNAPTOPHYSIN and the monoaminergic marker VMAT2 (FIG. 40. A subset of cells expressed GIRK2 or CALBINDIN indicating the presence of both A9- and A10-like subtypes of mDA neurons^45 (FIG. 4f). At 35 DDC, ˜80% of neurons expressed TH^+ which corresponded to ˜65% of total DAPI^+ cells (FIG. 4i, j). ˜10% of neurons expressed GABA (FIG. 4i, j), and some of these co-expressed TH (FIG. 10c (Supplementary FIG. 4c)). Only rare neurons expressing 5-HT or the MN marker PERIPHERIN were detected (FIG. 4i, j). High performance liquid chromatography (HPLC) analyses at 42 DDC established that neurons produced and released dopamine (FIG. 4k, I) but not serotonin (5-HT) or noradrenaline (NA) (FIG. 4k). […] Very few cells expressed Ki67 or phospho-histone H3 at 35-40 DDC indicating low mitotic activity after long-term culturing of cells (FIG. 4i). Functional maturation of mDA neurons in vitro can be monitored by determining the time when hPSC-derived mDA neurons acquire spontaneous action potentials, evoked action potentials and voltage-dependent Na^+ and K^+ currents, and these traits were previously reported to be attained after ˜60 days of culture of FACS-enriched mDA neurons (25+36 days: before/after sorting) using current state-of-the-art protocols^7. […] Neurons showing both spontaneous (FIG. 4m) and evoked action potentials (FIG. 4n) could be recorded at 40 DDC.
80-90% confluent PSCs cultures were rinsed twice with PBS, treated with EDTA (0.5 mM in PBS) for 5-7 min, and resuspended into single cell suspension in PBS. Cells were spin down at 400 g and resuspended in N2B27 medium (DMEM/F12: Neurobasal (1:1), 0.5×N2 and 0.5×B27 (plus vitamin A) supplements, 1×nonessential amino acids, 1% GlutaMAX, 55 μM β-mercaptoethanol-all from Thermo Fisher Scientific) containing 5 μM SB431542 (Miltenyi Biotech) and 2.5 μM DMH1 (Santa Cruz Biotech) (dual SMAD inhibition), and 10 μM ROCK inhibitor (for the first 48 hours after seeding). Cells were seeded on VTN (2 μg/cm^2) and Fibronectin (FN) (2 μg/cm^2) (Sigma) coated surface at a density of 60,000-80,000 cells/cm^2 for RA- and RA-analogues based experiments, and 20,000 cells/cm^2 for CHIR99021 experiments. SAG1.3 (Santa Cruz Biotechnology), CHIR99021 (Miltenyi Biotech), all-trans RA, 9-cis RA, 13-cis RA, Tazarotenic acid, R115866 (all Sigma), EC23 (Amsbio) were used at concentrations and time points described in the result section. For mDA neuron differentiation (see schematic drawing FIG. 4) neural progenitors were mechanically dissociated at 9 DDC with Stem Cell Passaging Tool (Thermo Fisher Scientific) and seeded at 1:3 ratio in N2B27 medium containing 10 μM ROCK inhibitor (for first 48 hours after dissociation) on VTN and FN coated surfaces. […]

[2] = system: hPSC-derived ventral midbrain dopaminergic progenitors; experiment: Specification of caudal midbrain identity (EN1 immunocytochemistry); format: cell-based, human; conditions: RA^2D+SAG plus 5 μM CHIR99021 between 4-9DDC
Description: (a) (a) Immunocytochemical analysis of ventral MB progenitor identities at 14 DDC. […] Nuclei of cells visualized with DAPI staining. (b) Immunocytochemistry of dopaminergic neuron marker TH and caudal midbrain marker EN1 expression in 40 DDC cultures differentiated in indicated conditions.
Cells were fixed for 12 min at room temperature (RT) in 4% paraformaldehyde in PBS, rinsed 3 times in PBST (PBS with 0.1% Triton-X100), and blocked for 1 hour at RT with blocking solution (3% FCS/0.1% Triton-X100 in PBS). Cells were then incubated with primary antibodies overnight at 4° C., followed by incubation with fluorophore-conjugated secondary antibodies for 1 hour at RT. Both primary and fluorophore-conjugated secondary antibodies were diluted in blocking solution. Primary antibodies used are listed in Supplementary Table 1. Appropriate Alexa (488, 555, 647)-conjugated secondary antibodies (Molecular Probes) were used.
Mechanisms underlying specification of midbrain dopamine neuron subtypes remains poorly resolved, but is likely to involve sub-patterning of ventral midbrain dopaminergic progenitors along the mediolateral and rostro-caudal axes of the midbrain (Brignani, S, and Pasterkamp, R. J., Front. Neuroanat. 11, 1-18 (2017)). WNT1 signaling emanating from the isthmic organizer at the midbrain-hindbrain boundary establish polarity of midbrain progenitors along the rostro-caudal axis by inducing a caudal^HIGH-to-rostral^LOW expression gradient of the homeodomain proteins EN1 and EN2 (Wurst, W. and Bally-Cuif, L. Nat. Rev. Neuroscience 2, 99-108 (2001)).

β-catenin = experiment: β-CATENIN nuclear levels in cultures at 2 DDC; format: cell-based, human; conditions: dSMADi+SAG
Source text: FIG. 2: Specification of NSC with ventral midbrain identity using RA and SHH signaling. (a) Schematic of hPSCs differentiation with timeline of treatment with RA and activator of SHH signaling (SAG) (top). Immunocytochemistry for indicated markers at 9 DDC in cultures differentiated in dSMADi+SAG-condition and pulsed with RA for 1-, 2- or 4-days (bottom). (b) Relative gene expression (FPKM) of indicated genes in 9 DDC cultures differentiated in dSMADi+SAG-conditions and treated with RA for the indicated time. (c) Heatmap and hierarchical clustering of differentially expressed genes of 9 DDC cultures differentiated in dSMADi+SAG-condition and treated with RA for the indicated time. (d) Schematic of gene expression profiles defining distinct ventral progenitors in the diencephalon (Di), midbrain (MB) and hindbrain (HB) positions. (e) Expression of genes associated with the indicated regional progenitors at 14 DDC in cultures differentiated in dSMADi+SAG+RA^2D condition. (f) Immunocytochemistry for β-CATENIN (left) and boxplots of β-CATENIN nuclear levels (right) in cultures at 2 DDC differentiated in dSMADi+SAG-condition (control) and treated with RA or CHIR99021. Boxplot, whiskers define 5th and 95th percentile. Asterisks, Student t test; **p<0.01, ***p<0.001. (g) Immunocytochemistry for the indicated markers in cultures at 14 DDC differentiated in dSMADi+SAG+RA^2D condition. […]

## CC1(C)CCC(C)(C)c2cc(C#Cc3ccc(C(=O)O)cc3)ccc21 [EC23]
hPSC-derived NSCs; 200 nM EC23, EC23^1D+SAG or EC23^2D+SAG, with or without inhibition of CYP26
  identity imposed by EC23: PHOX2B^+ HB-identity; also recorded: hindbrain identity
hPSC-derived NSCs; FIG. 9c titration
  EC23 concentration imposing a vMB-identity: 10 nM
hPSC-derived NSCs; reduced EC23 concentration
  duration of EC23 treatment required to induce LMX1A+/NKX2.1− vMB cells: 24 h
hPSC-derived NSCs; titration, relative to 200 nM, treatment for 24 hours
  reduction in concentration required for EC23 to induce LMX1A+/NKX2.1− vMB cells: 20 fold

## CC1=C(/C=C/C(C)=C\C=C\C(C)=C\C(=O)O)C(C)(C)CCC1 [9-cis RA, 9-cis-Retinoic acid]
hPSC-derived NSCs
  identity imposed by RA analogue with inhibition of CYP26 activity: shift into a PHOX2B^+ HB identity
  identity imposed by RA analogue: LMX1A^+/NKX2.1^− vMB identity; also recorded: LMX1A+/NKX2.1− vMB identity
CYP26
  susceptibility to CYP26-mediated oxidation: substrates for CYP26-mediated oxidation

## CNC1CCC(N(Cc2cccc(-c3ccncc3)c2)C(=O)c2sc3ccccc3c2Cl)CC1 (stereo not shown) [SAG]
hPSC-derived NSCs; dSMADi, SAG from day 0, 9 DDC
  SAG concentration for effective induction of vMB NSC identity: 50 nM

## CC1(C)CCSc2ccc(C#Cc3ccc(C(=O)O)cn3)cc21 [tazarotenic acid]
hPSC-derived NSCs
  identity imposed by RA analogue with inhibition of CYP26 activity: shift into a PHOX2B^+ HB identity
  identity imposed by RA analogue: LMX1A^+/NKX2.1^− vMB identity; also recorded: LMX1A+/NKX2.1− vMB identity
CYP26
  susceptibility to CYP26-mediated oxidation: substrates for CYP26-mediated oxidation

## CCC(CC)C(c1ccc(Nc2nc3ccccc3s2)cc1)n1cncn1 (stereo not shown) [R115866]
hPSC-derived NSCs; 100 nM R115866, RA+SAG cultures
  identity of cells after inhibiting CYP26 activity: mix of LMX1A^+/NKX2.1^− vMB cells and PHOX2B^+ HB cells
hPSC-derived NSCs; 500 nM R115866 between 0-3 DDC, RA^1D+SAG or RA^2D+SAG cultures
  identity of cells after inhibiting CYP26 activity: PHOX2B^+ HB-identity
hPSC-derived NSCs; R115866 and SAG only (no RA)
  identity of cells after inhibiting CYP26 activity: did not suppress NKX2.1^+ FB-fate

## Cc1c[nH]c(-c2cnc(NCCNc3ccc(C#N)cn3)nc2-c2ccc(Cl)cc2Cl)n1 [CHIR99021]
[1]; 21 DDC
  HuCD+ neurons as share of total DAPI+ cells: ~10%
[1]
  time of initiation of neurogenesis (first neurons): around 17 DDC
hPSC-derived NSCs; 1 μM
  identity of NSCs: LMX1A^+/NKX2.1^− identity
hPSC-derived NSCs; 0.8 and 0.6 μM
  identity of NSCs: diencephalic LMX1A^+/NKX2.1^+ character
hPSC-derived NSCs; 1.2 and 1.4 μM
  identity of NSCs: NKX2.2^+/LMX1A^− presumptive HB identity
[2]; 14DDC
  identity of ventral midbrain progenitors (EN1): a majority of LMX1A^+/OTX2^+ cells also expressed EN1
[2]; 40DDC
  EN1 expression in TH+ dopamine neurons: a large fraction of TH^+ dopamine neurons expressed EN1
β-catenin
  β-catenin in nuclei: translocation of β-catenin into nuclei

## CC1=C(/C=C/C(C)=C/C=C/C(C)=C\C(=O)O)C(C)(C)CCC1 [13-cis RA, 13-cis-Retinoic acid]
hPSC-derived NSCs
  identity imposed by RA analogue with inhibition of CYP26 activity: shift into a PHOX2B^+ HB identity
  identity imposed by RA analogue: LMX1A^+/NKX2.1^− vMB identity; also recorded: LMX1A+/NKX2.1− vMB identity
CYP26
  susceptibility to CYP26-mediated oxidation: substrates for CYP26-mediated oxidation

From US20230233617A1, “METHODS FOR DIFFERENTIATING STEM CELLS INTO DOPAMINERGIC PROGENITOR CELLS” (JZ CELL TECHNOLOGIES AB, priority 2020, published 2023)
